Columns and labels:
[1] = molecular target: T1, human cannabinoid 1 receptor (hCB1) (Homo sapiens, UniProt P21554); assay: CHO-hCB1 ERK1/2 phosphorylation assay; assay type: cell-based
T1 construct: expressed in transfected cells; host or cells: FlpIn CHO cells (Invitrogen)
Procedure: (§1) Rat mAChR subtypes (rM1–rM5; Origene) and human cannabinoid 1 receptor (hCB1; ref. [24]) constructs were isogenically integrated into FlpIn CHO cells (Invitrogen) and cells were selected in the presence of […] hygromycin B at 37 °C, 5% CO2, as previously described for the human M1 mAChR [25]. All cells were sub-cultured and seeded as previously described for the CHO-hM5 cells.
The IP-One assay kit (Cisbio) was used for the direct quantitative measurement of inositol phosphate (IP) accumulation in CHO-rM1, CHO-rM3 or CHO-rM5 cells, as described previously. The CHO-hCB1 pERK1/2 assays were performed as described in ref [24].
Sigma-1 data are expressed as a percentage of specific [^3H]-(+)-pentazocine binding; ERK1/2 phosphorylation data are expressed percentage of the response to 10% FBS. Data represent the mean ± S.E.M. of 5-7 independent experiments performed in duplicate or triplicate.

rat M5 mAChR = molecular target: T2, rat M5 mAChR (Rattus norvegicus, UniProt P08911); assay: [3H]NMS equilibrium binding in whole CHO-rM5 cells (interaction with ACh); details: whole-cell [3H]NMS binding, read-out: binding affinity pKB (converted)
T2 sequence (P08911 1-531): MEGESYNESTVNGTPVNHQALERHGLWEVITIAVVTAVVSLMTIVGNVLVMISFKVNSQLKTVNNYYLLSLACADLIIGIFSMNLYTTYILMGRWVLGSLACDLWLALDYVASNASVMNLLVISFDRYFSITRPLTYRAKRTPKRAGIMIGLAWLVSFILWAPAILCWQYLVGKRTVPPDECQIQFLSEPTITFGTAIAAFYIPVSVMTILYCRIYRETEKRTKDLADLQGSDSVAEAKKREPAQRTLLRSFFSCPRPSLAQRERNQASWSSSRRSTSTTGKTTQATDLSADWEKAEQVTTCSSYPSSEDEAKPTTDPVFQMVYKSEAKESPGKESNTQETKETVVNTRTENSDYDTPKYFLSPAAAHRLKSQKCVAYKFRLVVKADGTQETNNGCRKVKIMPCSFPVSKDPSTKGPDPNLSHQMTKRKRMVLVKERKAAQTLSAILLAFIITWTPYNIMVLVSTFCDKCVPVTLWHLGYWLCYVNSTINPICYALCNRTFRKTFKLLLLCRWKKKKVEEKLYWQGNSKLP
Procedure: as §1
(§2) [^3H]NMS equilibrium binding assays in CHO-rM1 to CHO-rM5 cells were performed as previously described for CHO-hM5 cells. For [^35S]GTPγS binding, CHO-rM2 and CHO-rM4 cell membranes were prepared as described in Supplementary information. Membrane [^35S]GTPγS binding was performed as described in ref [26]., except GDP and [^35S]GTPγS concentrations were 1 μM and 0.3 nM, respectively. [^3H](+)-pentazocine binding was performed as described in ref. [27].

rat M2 mAChR = molecular target: T3, rat M2 mAChR (Rattus norvegicus, UniProt P10980); assay: [3H]NMS equilibrium binding in whole CHO-rM2 cells; details: rM2, [3H]NMS binding
T3 construct: host or cells: FlpIn CHO cells (Invitrogen)
T3 sequence (P10980 1-466): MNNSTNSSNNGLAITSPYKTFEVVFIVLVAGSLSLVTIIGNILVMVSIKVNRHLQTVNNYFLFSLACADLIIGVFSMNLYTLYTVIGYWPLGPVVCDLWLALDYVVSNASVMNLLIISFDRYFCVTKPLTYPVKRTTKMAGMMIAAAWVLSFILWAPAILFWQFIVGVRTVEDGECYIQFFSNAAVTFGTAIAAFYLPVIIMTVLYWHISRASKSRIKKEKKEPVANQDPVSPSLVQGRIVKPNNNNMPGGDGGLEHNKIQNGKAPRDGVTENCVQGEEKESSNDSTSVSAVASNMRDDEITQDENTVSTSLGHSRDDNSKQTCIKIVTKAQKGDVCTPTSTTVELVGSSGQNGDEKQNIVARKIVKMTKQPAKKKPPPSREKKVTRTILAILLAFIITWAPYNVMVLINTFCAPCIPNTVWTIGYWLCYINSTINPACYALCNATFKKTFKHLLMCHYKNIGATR
Procedure: as §1, §2

T1 sequence (P21554 whole entry): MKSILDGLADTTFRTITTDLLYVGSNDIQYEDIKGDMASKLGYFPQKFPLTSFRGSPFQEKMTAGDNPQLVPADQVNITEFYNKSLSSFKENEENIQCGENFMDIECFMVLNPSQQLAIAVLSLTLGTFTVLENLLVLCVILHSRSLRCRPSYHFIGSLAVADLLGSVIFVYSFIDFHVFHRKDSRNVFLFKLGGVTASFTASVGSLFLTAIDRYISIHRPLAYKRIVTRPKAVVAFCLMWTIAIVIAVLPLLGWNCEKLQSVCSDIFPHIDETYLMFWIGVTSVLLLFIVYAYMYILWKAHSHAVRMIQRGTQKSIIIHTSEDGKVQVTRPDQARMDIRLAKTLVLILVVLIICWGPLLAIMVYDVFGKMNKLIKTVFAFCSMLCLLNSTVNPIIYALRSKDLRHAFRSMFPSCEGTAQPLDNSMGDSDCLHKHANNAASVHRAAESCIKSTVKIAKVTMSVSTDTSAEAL

## O=C(c1ccc(F)c(F)c1)N1CCN2C(=O)c3ccccc3[C@@]12c1ccc(Cl)cc1 [ML375, (S)-9b-(4-chlorophenyl)-1-(3,4-difluorobenzoyl)-2,3-dihydro-1H-imidazo[2,1-a]isoi ndol-5(9bH)-one]
[1]; CHO-hCB1, concentrations up to 10 μM
  effect in ERK1/2 phosphorylation assays: no apparent effect
[1]; FlpIn-CHO hCB1, agonist mode
  agonist activity, ERK1/2 phosphorylation: no agonist activity
[1]; FlpIn-CHO hCB1, antagonist mode
  inhibition of WIN 55212-2 (1µM)-stimulated ERK 1/2 phosphorylation: failed to inhibit
Rat M5 mAChR
  Kb: 355 nM
Rat M2 mAChR
  effect on ACh affinity: no significant effects
